Experiment: in vitro
Conditions: human, hela cells, % viability

Row | SMILES | viability at 28.5 h, 10 µM
1 | CN1CCN(c2cccc(-c3cc(C(F)(F)F)cc(C(F)(F)F)c3)n2)CC1 [CBK036982] | 93.3%
2 | CN(C)CCN(C)c1cccc(-c2ccc(CCC(=O)O)cc2)n1 [CBK036983] | 105%
3 | CN(C)c1cccc(Nc2ccc(/C=C/c3ccccc3)cn2)c1 [CBK036984] | 98.7%
4 | Nc1cccc(-c2ccc(NCc3cc(F)c(F)c(F)c3)nc2)c1 [CBK036985] | 97.2%
5 | c1ccc(Oc2ccc(Nc3cccc(-c4ccc(N5CCOCC5)cc4)n3)cc2)cc1 [CBK036986] | 95.4%
6 | COc1cc(Nc2cccc(-c3ccsc3)n2)cc(OC)c1OC [CBK036987] | 97.9%
7 | CC(=O)c1ccc(-c2cc(N3CCN(C(=O)c4ccco4)CC3)ncn2)s1 [CBK036999] | 105%
8 | COc1ccccc1CCC(=O)Nc1cnc(-c2ccc(F)cc2)c(-c2ccco2)n1 [CBK037002] | 95.1%
9 | CC(=O)c1ccc(-c2nccnc2N2CCN(c3ccncc3)CC2)s1 [CBK037015] | 95.8%
10 | C=CCNc1nccnc1-c1cccnc1 [CBK037016] | 101%
11 | Oc1cccc(-c2nccnc2N[C@@H]2CCN(Cc3ccccc3)C2)c1 [CBK037017] | 98.2%
12 | CN1CCN(c2cccc(-c3cc4ccccc4s3)n2)CC1 [CBK037019] | 102%
13 | COc1ccc(Nc2ccc(-c3cccc(OC(F)(F)F)c3)cn2)cn1 [CBK037022] | 100%
14 | COc1cncc(-c2cccc(N3CCN(CCN(C)C)CC3)n2)c1 [CBK037024] | 97.4%
15 | Oc1ccc(-c2cccc(N3CCN(c4ccccn4)CC3)n2)cc1 [CBK037028] | 103%
16 | CN(C)CCN1CCN(c2cccc(-c3ccncc3)n2)CC1 [CBK037029] | 95.9%
17 | Cc1cccc(-c2ncc(NC(=O)Cc3ccc(OC(F)(F)F)cc3)nc2-c2cccnc2)c1 [CBK037030] | 89.2%
18 | C[C@H](Nc1nccnc1-c1ccco1)c1ccccc1 [CBK037032] | 93.1%

Row | SMILES | viability at 28.5 h, 10 µM
19 | COc1ncc(-c2cc(N3CCN(CCN(C)C)CC3)n3nccc3n2)c(OC)n1 [CBK037033] | 87.7%
20 | CC(=O)N1CCC(C(=O)Nc2cnc(-c3ccc(F)cc3)c(-c3ccco3)n2)CC1 [CBK037038] | 104%
21 | CN(C)c1ccccc1-c1cc(N2CCN(S(=O)(=O)c3ccc(Cl)cc3)CC2)ncn1 [CBK037039] | 81.7%
22 | Clc1cc(NCc2ccc(Cl)c(Cl)c2)n2nccc2n1 [CBK037043] | 97.7%
23 | CC(=O)c1ccc(-c2nccnc2NCc2cccnc2)s1 [CBK037050] | 99.5%
24 | C=CCNc1nccnc1-c1ccc(C(C)=O)s1 [CBK037052] | 88.8%
25 | OC(CNc1nccnc1-c1ccsc1)COc1ccccc1 (stereo not drawn) [CBK037057] | 96.3%
26 | O=C(c1ccc(-c2nccnc2NCc2cccs2)cc1)N1CCOCC1 [CBK037059] | 98.8%
27 | COc1cc(-c2cc(N3CCN(Cc4cccnc4)CC3)n3nccc3n2)cc(OC)c1OC [CBK037063] | 95.9%
28 | OCc1ccc(-c2nccnc2NCc2cccc(C(F)(F)F)c2)cc1 [CBK037076] | 114%
29 | Oc1cccc(-c2nccnc2N2CCN(c3ccncc3)CC2)c1 [CBK037079] | 113%
30 | O=C(O)c1cccc(-c2cc(N3CCN(Cc4cccnc4)CC3)n3nccc3n2)c1 [CBK037080] | 106%
31 | OC(CNc1nccnc1-c1ccccc1Cl)COc1ccccc1 (stereo not drawn) [CBK037085] | 92%
32 | OCc1ccc(-c2nccnc2NCc2ccccn2)cc1 [CBK037088] | 106%
33 | CC(C)Nc1nccnc1-c1cccc(O)c1 [CBK037089] | 97.3%
34 | Cc1cccc(-c2ncc(NC(=O)COc3ccc([N+](=O)[O-])cc3)nc2-c2cccnc2)c1 [CBK037096] | 97.8%
35 | CN1CCN(c2cc(-c3cccc(CO)c3)nc3ccnn23)CC1 [CBK037099] | 98.1%
36 | CCCNc1nccnc1-c1ccc(F)c(Cl)c1 [CBK037100] | 104%

— article PMC12040169 (PLOS Biology, 2025)
